From publication PMC7284133, “Identification and analysis of novel small molecule inhibitors of RNase E: Implications for antibacterial targeting and regulation of RNase E” (Biochemistry and Biophysics Reports, 2020)

Key:
RNase E [1] = target: T1, RNase E (Acinetobacter baumannii, UniProt A0ABX6CBI2); assay: biochemical
T1 construct: gene rne; N-terminal domain (aa 1–544), N-terminally His10-tagged

RNase E [2] = target: T2, RNase E (Escherichia coli, UniProt P21513); assay: FRET-based real-time RNA cleavage assay; also discontinuous PAGE assay; type: biochemical
T2 construct: gene rne; N-terminal domain (aa 1–529), N-terminally His10-tagged
T2 sequence (P21513 1-529): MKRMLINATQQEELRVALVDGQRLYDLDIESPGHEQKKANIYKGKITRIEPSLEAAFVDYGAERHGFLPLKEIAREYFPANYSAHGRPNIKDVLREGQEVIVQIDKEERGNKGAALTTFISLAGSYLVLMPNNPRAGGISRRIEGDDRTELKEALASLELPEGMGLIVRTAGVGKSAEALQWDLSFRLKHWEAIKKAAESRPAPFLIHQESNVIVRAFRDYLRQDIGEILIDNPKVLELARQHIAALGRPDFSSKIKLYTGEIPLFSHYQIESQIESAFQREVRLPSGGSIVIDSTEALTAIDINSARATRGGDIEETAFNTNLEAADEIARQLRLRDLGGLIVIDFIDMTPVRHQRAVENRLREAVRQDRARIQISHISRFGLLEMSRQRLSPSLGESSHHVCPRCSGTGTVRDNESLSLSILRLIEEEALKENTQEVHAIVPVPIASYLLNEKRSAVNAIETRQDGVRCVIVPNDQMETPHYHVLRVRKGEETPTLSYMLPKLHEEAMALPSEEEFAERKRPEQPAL

| Structure (SMILES) | inhibition at 2000 µM (RNase E [1]) [%] | IC50 (RNase E [2]) [µM] |
| --- | --- | --- |
| CC1=NNC(=O)C1CCC(=O)O (stereo not shown) [5′S1] | ~60 | 2500 |
| CC(C)c1c(O)nc(SCCC(=O)O)[nH]c1=O [AS2] |  | 1900 |
| N[C@@H]1[C@@H](O)[C@H](O)[C@@H](COP(=O)(O)O)O[C@@H]1O [AS4, glucosamine-6-phosphate] |  | 2100 |
